Reference: patent US20230159445A1, “STAT INHIBITORY COMPOUNDS AND COMPOSITIONS” (JANPIX LIMITED, priority 2020, published 2023)

Columns and labels:
glutathione (GSH) = experiment: Reactivity Profiling with Glutathione (GSH), half-life by HPLC; conditions: 5 mM glutathione (GSH) in IMDM with 10% FBS
Description: 3.5 μL of 5 mM stocking solution of the inhibitors in DMSO was added to 697.5 μL of Iscove's Modified Dulbecco's Medium (IMDM) supplemented with 10% FBS and antibiotic antimycotic solution, with 5 mM glutathione to afford a final concentration of 25 μM inhibitor with 0.5% DMSO. The solution was then immediately placed in the sample tray at 25° C. […] For each inhibitor, its peak is integrated at different time points and compared to the time zero injection in order to obtain a percentage remaining. Half-life is calculated according to a first order reaction kinetic taking into account those time points for which remaining percentage of inhibitor is above 40%, using the formula: t½=Ln(2)/k, where k is the slope of the linear plot of Ln[Inhibitor] vs time, according to the formula: Ln[A]=Ln[A]0−kt, where [A] is the value resulting from the integration at each time point, [A]0 the value at time zero, and t the time. For each inhibitor, both replicates are averaged and the resulting t½ reported.

MV4-11 cells = experiment: MV4-11 Cell Cytotoxicity Assay (CellTiter-Blue, 72 h); type: cell-based, human; conditions: MV-4-11 cells
In short: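 Cells seeded 24 h before treatment, then exposed 72 h at 37° C, 5% CO2 to inhibitors in triplicate, top concentration 50 μM with 1:2 serial dilutions (0.5% DMSO vehicle). Viability read by CellTiter-Blue fluorescence at 560/590 nm after 1 h.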

[1] = system: normal human fibroblast (NHF) cells; experiment: NHF Cell Cytotoxicity Assay (CellTiter-Blue, 72 h), off-target effects; type: cell-based; conditions: pooled NHF cells
Description: In some embodiments, the off-target effects of the compounds are evaluated in healthy human cells, such as in a normal human fibroblast (NHF) cell cytotoxicity assay.
Cell viability was examined following treatment at various concentrations of inhibitor (0.097656-50 μM) using a cell Titer-Blue cell viability assay. 1×10^4 normal human fibroblast cells per well were plated in 96-well assay plates in culture medium. All cells are grown in DMEM, IMDM and RPMI-1640 were supplemented with 10% FBS. After 24 hours, test compounds and vehicle controls are added to appropriate wells so the final volume was 100 μl in each well. The cells are cultured for the desired test exposure period (72 hours) at 37° C. and 5% CO2. The assay plates are removed from 37° C. incubator and 20 μL/well of CellTiter-Blue® Reagent is added. The plates are incubated using standard cell culture conditions for 1-4 hours and the plates are shaken for 10 seconds and record fluorescence at 560/590nm. For each sample well, value is normalized between the DMSO control and the highest concentration in case of plateau, and converted into a percentage. In the absence of plateau, minimum lecture is obtained from a different sample within the same experiment. For each concentration, the four replicates are averaged and standard deviation calculated. Data is fitted to a log(inhibitor) vs response curve with variable slope model using Microsoft Excel, obtaining IC50 and Hill slope variables.
A person skilled in the art would appreciate that a higher IC50 value in this NHF assay can indicate lower off-target effects.

Structure (SMILES)	half-life at 25 μM (glutathione (GSH))	IC50 (MV4-11 cells; Homo sapiens, MV4-11)	IC50 ([1]; Homo sapiens, Fibroblast)	IC50 [1]	IC50 (MV4-11 cells)
COc1cc(C(=O)O)ccc1N(Cc1ccc2ccccc2c1)C(=O)CN(Cc1cnccc1C(F)(F)F)S(=O)(=O)c1c(F)c(F)c(F)c(F)c1F [Compound 1157, 3-methoxy-4-(N-(naphthalen-2-ylmethyl)-2-(N-((4-(trifluoromethyl)pyridin-3-yl)methyl)-(2,3,4,5,6-pentafluoro-phenyl)sulfonamido)acetamido)benzoic acid]	0.00167 to 2.37 h	1000 to 3160 nM			
O=C(O)c1ccc(N(Cc2cc(C3CC3)cc(C3CC3)c2)C(=O)CN(Cc2cnccc2C(F)(F)F)S(=O)(=O)c2c(F)c(F)c(F)c(F)c2F)c(OC2CC2)c1 [Compound 1163, 3-cyclopropoxy-4-(N-(3,5-dicyclopropylbenzyl)-2-(N-((4-(trifluoromethyl)pyridin-3-yl)methyl)-(2,3,4,5,6-pentafluoro-phenyl)sulfonamido)acetamido)benzoic acid]	2.37 to 4.12 h	0.01 to 316 nM			
Cc1cc(C(=O)O)cc(C)c1N(Cc1cc(C2CC2)cc(C2CC2)c1)C(=O)CN(Cc1ccc(F)cc1Cl)S(=O)(=O)c1c(F)c(F)c(F)c(F)c1F [Compound 1188, 4-(2-(N-(2-chloro-4-fluorobenzyl)-(2,3,4,5,6-pentafluorophenyl)sulfon-amido)-N-(3,5-dicyclopropylbenzyl)acetamido)-3,5-dimethylbenzoic acid]		316 to 1000 nM	1 to 10000 nM		
CC(C)(C)c1cc(CN(C(=O)CN(Cc2ccc(F)cc2Cl)S(=O)(=O)c2c(F)c(F)c(F)c(F)c2F)c2ccc(C(=O)O)cc2C2CC2)cc(C2CC2)c1 [Compound 1193, 4-(N-(3-(tert-butyl)-5-cyclopropylbenzyl)-2-(N-(2-chloro-4-fluorobenzyl)-(2,3,4,5,6-pentafluorophenyl)sulfon-amido)acetamido)-3-cyclopropylbenzoic acid]				10000 to 20000 nM	0.01 to 316 nM
Cc1cc(C(=O)O)cc(C)c1N(Cc1cc(C2CC2)cc(C(C)(C)C)c1)C(=O)CN(Cc1c(F)c(F)c(F)c(F)c1F)S(=O)(=O)c1c(F)c(F)c(F)c(F)c1F [Compound 1201, 4-(N-(3-(tert-butyl)-5-cyclopropylbenzyl)-2-(N-((perfluorophenyl)methyl)-(2,3,4,5,6-pentafluorophenyl)sulfonamido)acetamido)-3,5-dimethylbenzoic acid]	9.23 to 1670 h	316 to 1000 nM			
Cc1cc(C(=O)O)cc(C)c1N(Cc1cc(C2CC2)cc(C2CC2)c1)C(=O)CN(Cc1c(F)c(F)c(F)c(F)c1F)S(=O)(=O)c1c(F)c(F)c(F)c(F)c1F [Compound 1204, 4-(N-(3,5-dicyclopropylbenzyl)-2-(N-((perfluorophenyl)methyl)-(2,3,4,5,6-pentafluoro-phenyl)sulfonamido)acetamido)-3,5-dimethylbenzoic acid]		316 to 1000 nM	1 to 10000 nM		
CC(C)(C)c1cc(CN(C(=O)CN(Cc2ccccc2C#N)S(=O)(=O)c2c(F)c(F)c(F)c(F)c2F)c2ccc(C(=O)O)cc2OC2CC2)cc(C2CC2)c1 [Compound 1224, 4-(N-(3-(tert-butyl)-5-cyclopropylbenzyl)-2-(N-(2-cyanobenzyl)-(2,3,4,5,6-pentafluorophenyl)sulfon-amido)acetamido)-3-cyclopropoxybenzoic acid]			1 to 10000 nM		
CC(C)(C)c1cc(CN(C(=O)CN(Cc2ccccc2OC(F)(F)F)S(=O)(=O)c2c(F)c(F)c(F)c(F)c2F)c2ccc(C(=O)O)cc2OC2CC2)cc(C2CC2)c1 [Compound 1235, 4-(N-(3-(tert-butyl)-5-cyclopropylbenzyl)-2-(N-(2-(trifluoromethoxy)benzyl)-(2,3,4,5,6-pentafluoro-phenyl)sulfonamido)acetamido)-3-cyclopropoxybenzoic acid]	9.23 to 1670 h	316 to 1000 nM			
CCc1cc(C(=O)O)ccc1N(Cc1cc(C2CC2)cc(C2CC2)c1)C(=O)CN(Cc1ccc(F)cc1Cl)S(=O)(=O)c1c(F)c(F)c(F)c(F)c1F [Compound 1243, 4-(2-(N-(2-chloro-4-fluorobenzyl)-(2,3,4,5,6-pentafluorophenyl)sulfon-amido)-N-(3,5-dicyclopropylbenzyl)acetamido)-3-ethylbenzoic acid]			10000 to 20000 nM		
CC(C)c1cc(C(=O)O)ccc1N(Cc1cc(C2CC2)cc(C2CC2)c1)C(=O)CN(Cc1ccc(F)cc1Cl)S(=O)(=O)c1c(F)c(F)c(F)c(F)c1F [Compound 1244, 4-(2-(N-(2-chloro-4-fluorobenzyl)-(2,3,4,5,6-pentafluorophenyl)sulfon-amido)-N-(3,5-dicyclopropylbenzyl)acetamido)-3-isopropylbenzoic acid]			10000 to 20000 nM		
O=C(O)c1ccc(N(Cc2cc(C3CC3)cc(C3CC3)c2)C(=O)CN(Cc2ccc(F)cc2Cl)S(=O)(=O)c2c(F)c(F)c(F)c(F)c2F)c(OC2CCSC2)c1 (stereo not shown) [Compound 1264, 4-(2-(N-(2-chloro-4-fluorobenzyl)-(2,3,4,5,6-pentafluorophenyl)sulfon-amido)-N-(3,5-dicyclopropylbenzyl)acetamido)-3-((tetrahydrothiophen-3-yl)oxy)benzoic acid]			10000 to 20000 nM		

Continued, in another order:

half-life at 25 μM (glutathione (GSH))	Structure (SMILES)	IC50 (MV4-11 cells; Homo sapiens, MV4-11)	IC50 ([1]; Homo sapiens, Fibroblast)	IC50 [1]	IC50 (MV4-11 cells)
0.00167 to 2.37 h	O=C(O)c1ccc(N(Cc2cccc(-n3cccc3)c2)C(=O)CN(Cc2cnccc2C(F)(F)F)S(=O)(=O)c2c(F)c(F)c(F)c(F)c2F)c(OC2CC2)c1 [Compound 1161, 4-(N-(3-(1H-pyrrol-1-yl)benzyl)-2-(N-((4-(trifluoromethyl)pyridin-3-yl)methyl)-(2,3,4,5,6-pentafluoro-phenyl)sulfonamido)acetamido)-3-cyclopropoxybenzoic acid]	316 to 1000 nM			
0.00167 to 2.37 h	COc1cc(C(=O)O)ccc1N(Cc1cc(C2CC2)cc(N2CCCC2)c1)C(=O)CN(Cc1cnccc1C(F)(F)F)S(=O)(=O)c1c(F)c(F)c(F)c(F)c1F [Compound 1165, 4-(N-(3-cyclopropyl-5-(pyrrolidin-1-yl)benzyl)-2-(N-((4-(trifluoromethyl)pyridin-3-yl)methyl)-(2,3,4,5,6-pentafluoro-phenyl)sulfonamido)acetamido)-3-methoxybenzoic acid]	316 to 1000 nM			
2.37 to 4.12 h	COc1cc(C(=O)O)ccc1N(Cc1cc(C2CC2)cc(C(C)(C)C)c1)C(=O)CN(Cc1ncc(F)cc1Cl)S(=O)(=O)c1c(F)c(F)c(F)c(F)c1F [Compound 1179, 4-(N-(3-(tert-butyl)-5-cyclopropylbenzyl)-2-(N-((3-chloro-5-fluoropyridin-2-yl)methyl)-(2,3,4,5,6-pentafluorophenyl)sulfon-amido)acetamido)-3-methoxybenzoic acid]	0.01 to 316 nM			
2.37 to 4.12 h	COc1cc(C(=O)O)ccc1N(Cc1cc(C2CC2)cc(C(C)(C)C)c1)C(=O)CN(Cc1ccc(F)cc1C#N)S(=O)(=O)c1c(F)c(F)c(F)c(F)c1F [Compound 1180, 4-(N-(3-(tert-butyl)-5-cyclopropylbenzyl)-2-(N-(2-cyano-4-fluorobenzyl)-(2,3,4,5,6-pentafluorophenyl)sulfon-amido)acetamido)-3-methoxybenzoic acid]	0.01 to 316 nM			
9.23 to 1670 h	O=C(O)c1ccc(N(Cc2cc(C3CC3)cc(C3CC3)c2)C(=O)CN(Cc2ccc(F)cc2Cl)S(=O)(=O)c2ccc(F)nc2)c(OC2CC2)c1 [Compound 1225, 4-(2-(N-(2-chloro-4-fluorobenzyl)-(6-fluoropyridine)-3-sulfonamido)-N-(3,5-dicyclopropylbenzyl)acetamido)-3-cyclopropoxybenzoic acid]	3160 to 100000 nM			
4.12 to 9.23 h	COc1ccccc1CN(CC(=O)N(Cc1cc(C2CC2)cc(C(C)(C)C)c1)c1ccc(C(=O)O)cc1OC1CC1)S(=O)(=O)c1c(F)c(F)c(F)c(F)c1F [Compound 1234, 4-(N-(3-(tert-butyl)-5-cyclopropylbenzyl)-2-(N-(2-methoxybenzyl)-(2,3,4,5,6-pentafluoro-phenyl)sulfonamido)acetamido)-3-cyclopropoxybenzoic acid]	316 to 1000 nM			
9.23 to 1670 h	CN(C)c1ccccc1CN(CC(=O)N(Cc1cc(C2CC2)cc(C(C)(C)C)c1)c1ccc(C(=O)O)cc1OC1CC1)S(=O)(=O)c1c(F)c(F)c(F)c(F)c1F [Compound 1236, 4-(N-(3-(tert-butyl)-5-cyclopropylbenzyl)-2-(N-(2-(dimethylamino)benzyl)-(2,3,4,5,6-pentafluorophenyl)sulfon-amido)acetamido)-3-cyclopropoxybenzoic acid]	316 to 1000 nM			
9.23 to 1670 h	CC(C)(C)c1cc(CN(C(=O)CN(Cc2ccccc2N2CCCC2)S(=O)(=O)c2c(F)c(F)c(F)c(F)c2F)c2ccc(C(=O)O)cc2OC2CC2)cc(C2CC2)c1 [Compound 1237, 4-(N-(3-(tert-butyl)-5-cyclopropylbenzyl)-2-(N-(2-(pyrrolidin-1-yl)benzyl)-(2,3,4,5,6-pentafluoro-phenyl)sulfonamido)acetamido)-3-cyclopropoxybenzoic acid]	316 to 1000 nM			
